Experimental findings from patent US20160095843A1, “PYRAZOLOPYRROLIDINE DERIVATIVES AND THEIR USE IN THE TREATMENT OF DISEASE” (NOVARTIS AG, priority 2013, published 2016) are described below.

Where two headings read alike, the source gives them in different places.

One test relates to THP-1 cells. Briefly: Cell growth inhibition assay (CellTiter-Glo), THP-1. Type of test: cell-based. The note with it: Homo sapiens. The gist of the method: (§1)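 Leukemia lines grown in their own media were exposed for 4 days at 37° C. to 3-fold serial dilutions from 10 μM (0.1% DMSO). Viability by CellTiter-Glo ATP luminescence, corrected for background and day-0 plate; IC50 and TGI from four-parameter fit against vehicle (100%) and medium (−100%).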
(In ATP-based viability assays light output follows the ATP content of the culture.)

In another test the test system is MV-4-11 cells. Briefly: Cell growth inhibition assay (CellTiter-Glo), MV-4-11. It is filed as cell-based. The settings on record: Homo sapiens, MV4-11. The gist of the method: as §1
Another test has as its system K-562 cells. Briefly: Cell growth inhibition assay (CellTiter-Glo), K-562. Type of test: cell-based, human. The essentials:
as §1

In general, GI50 refers to the concentration that inhibits growth by half. On to `COc1ncccc1-n1nc(C)c2c1C(=O)N(c1cc(C)c3nnc(C)n3c1)C2c1ccc(Cl)cc1F` (stereo not shown) [Example 184, 4-(4-chloro-2-fluorophenyl)-5-(3,8-dimethyl-[1,2,4]triazolo[4,3-a]pyridin-6-yl)-1-(2-methoxypyridin-3-yl)-3-methyl-4,5-dihydropyrrolo-[3,4-c]pyrazol-6(1H)-one], for which the GI50 in the test on THP-1 cells was 131 nM; with MV-4-11 cells, 59.6 nM; with K-562 cells (Homo sapiens, K562), 394 nM.
For `COc1ncccc1-n1nc(C)c2c1C(=O)N(c1cc(C)c3nnc(C)n3c1)C2c1ccc(F)cc1F` (stereo not shown) [Example 173, 4-(2,4-difluorophenyl)-5-(3,8-dimethyl-[1,2,4]triazolo[4,3-a]pyridin-6-yl)-1-(2-methoxypyridin-3-yl)-3-methyl-4,5-dihydropyrrolo-[3,4-c]pyrazol-6(1H)-one] the same measures were 91.6 nM, 57.1 nM and 328 nM.
With `Cc1nn(C2CNC2)c2c1C(c1ccc(Cl)cc1)N(c1cc(C)c(=O)n(C)c1)C2=O` (stereo not shown) [Example 138, 1-(azetidin-3-yl)-4-(4-chlorophenyl)-5-(1,5-dimethyl-6-oxo-1,6-dihydropyridin-3-yl)-3-methyl-4,5-dihydropyrrolo[3,4-c]pyrazol-6(1H)-one], the GI50 was 904 nM in the test with THP-1 cells; 251 nM in the test with MV-4-11 cells; 2060 nM in the test with K-562 cells (Homo sapiens, K562).
For `Cc1c2c(nn1C1CC1)C(=O)N(c1cc(Cl)c(=O)n(C)c1)[C@H]2c1ccc(Cl)cc1` [Example 18, (S)-5-(5-chloro-1-methyl-6-oxo-1,6-dihydropyridin-3-yl)-4-(4-chlorophenyl)-2-cyclopropyl-3-methyl-4,5-dihydropyrrolo[3,4-c]pyrazol-6(2H)-one] the same measures were more than 10000 nM, 3330 nM and more than 10000 nM.
For the compound `COCc1nn(C2CC2)c2c1C(c1ccc(Cl)cc1)N(c1cc(C)c(=O)n(C)c1)C2=O` (racemic) [Example 132, 4-(4-chlorophenyl)-1-cyclopropyl-5-(1,5-dimethyl-6-oxo-1,6-dihydropyridin-3-yl)-3-(methoxymethyl)-4,5-dihydropyrrolo[3,4-c]pyrazol-6(1H)-one], the GI50 is 107 nM in the test with THP-1 cells; 52.3 nM in the test on MV-4-11 cells; 427 nM in the test on K-562 cells (Homo sapiens, K562). The IC (TGI) with THP-1 cells is 233 nM; with MV-4-11 cells, 99.5 nM; in the test on K-562 cells (Homo sapiens, K562) it was more than 10000 nM.
In the case of `Cc1nn(C2CC2)c2c1C(c1ccc(Cl)cc1)N(c1cn(C)c(=O)c3[nH]ccc13)C2=O` (stereo not shown) [Example 160, 4-(4-(4-chlorophenyl)-1-cyclopropyl-3-methyl-6-oxopyrrolo-[3,4-c]pyrazol-5(1H,4H,6H)-yl)-6-methyl-1H-pyrrolo[2,3-c]pyridin-7(6H)-one], the GI50 with THP-1 cells was found to be 56.1 nM; in the test with MV-4-11 cells, 66.2 nM; in the test on K-562 cells (Homo sapiens, K562), 426 nM.
For the compound `CCc1c2c(nn1CCO)C(=O)N(c1cc(C)c3onc(C)c3c1)C2c1ccc(Cl)cc1` (stereo not shown) [Example 80, 4-(4-chlorophenyl)-5-(3,7-dimethylbenzo[d]isoxazol-5-yl)-3-ethyl-2-(2-hydroxyethyl)-4,5-dihydropyrrolo[3,4-c]pyrazol-6(2H)-one], the 50% growth inhibitory concentration (GI50) is 354 nM with THP-1 cells; 356 nM in the test on MV-4-11 cells; 868 nM with K-562 cells (Homo sapiens, K562).
As to `Cc1cc(N2C(=O)c3c(c(CO)nn3C3CC3)C2c2ccc(Cl)cc2)cn2c(C)nnc12` (stereo not shown) [Example 131, 4-(4-chlorophenyl)-1-cyclopropyl-5-(3,8-dimethyl-[1,2,4]triazolo[4,3-a]pyridin-6-yl)-3-(hydroxymethyl)-4,5-dihydropyrrolo-[3,4-c]pyrazol-6(1H)-one], the GI50 is 59.7 nM with THP-1 cells; 24.5 nM with MV-4-11 cells; 215 nM in the test on K-562 cells (Homo sapiens, K562). In the test with K-562 cells, this compound had an IC (TGI) of more than 10000 nM.
